Results from ChEMBL document CHEMBL1142376, “Novel CADD-based peptidyl vinyl ester derivatives as potential proteasome inhibitors” (Bioorg Med Chem Lett, 2008).

tested on: KB; test: Antiproliferative activity against human KB cells at 10 umole; type: functional

Compound | Activity
CCOC(=O)/C=C/[C@H](C[C@@H]1CCNC1=O)NC(=O)[C@H](CC(C)C)NC(=O)[C@H](CO)NC(=O)[C@H](Cc1ccccc1)NC(=O)OC(C)(C)C | -4.17%
CCOC(=O)/C=C/[C@H](C[C@@H]1CCNC1=O)NC(=O)[C@H](CC(C)C)NC(=O)[C@H](CC(C)C)NC(=O)[C@H](CC(C)C)NC(=O)OC(C)(C)C | 15.73%
CCOC(=O)/C=C/[C@H](Cc1ccccc1)NC(=O)[C@@H](NC(=O)[C@@H](NC(=O)OC(C)(C)C)[C@@H](C)CC)[C@@H](C)O | 10.75%
CCOC(=O)/C=C/[C@H](Cc1ccc(O)cc1)NC(=O)[C@@H](NC(=O)OC(C)(C)C)[C@@H](C)CC | 5.27%
CCOC(=O)/C=C/[C@H](Cc1ccccc1)NC(=O)[C@H](CO)NC(=O)[C@H](Cc1ccccc1)NC(=O)OC(C)(C)C | 5.23%
CCOC(=O)/C=C/[C@H](Cc1ccccc1)NC(=O)[C@H](CO)NC(=O)OC(C)(C)C | -11.24%
CCOC(=O)/C=C/[C@H](Cc1ccc(O)cc1)NC(=O)[C@H](Cc1ccccc1)NC(=O)OC(C)(C)C | -0.7%

tested on: not listed separately; test: Inhibition of chymotrypsin-like activity of 20S proteasome

IC50 | Compound
> 100 µmol | CCOC(=O)/C=C/[C@H](C[C@@H]1CCNC1=O)NC(=O)[C@H](CC(C)C)NC(=O)[C@H](CO)NC(=O)[C@H](Cc1ccccc1)NC(=O)OC(C)(C)C
48.31 µmol | CCOC(=O)/C=C/[C@H](C[C@@H]1CCNC1=O)NC(=O)[C@H](CC(C)C)NC(=O)[C@H](CC(C)C)NC(=O)[C@H](CC(C)C)NC(=O)OC(C)(C)C
> 100 µmol | CCOC(=O)/C=C/[C@H](Cc1ccccc1)NC(=O)[C@@H](NC(=O)[C@@H](NC(=O)OC(C)(C)C)[C@@H](C)CC)[C@@H](C)O
> 100 µmol | CCOC(=O)/C=C/[C@H](Cc1ccc(O)cc1)NC(=O)[C@@H](NC(=O)OC(C)(C)C)[C@@H](C)CC
> 100 µmol | CCOC(=O)/C=C/[C@H](Cc1ccccc1)NC(=O)[C@H](CO)NC(=O)[C@H](Cc1ccccc1)NC(=O)OC(C)(C)C
> 100 µmol | CCOC(=O)/C=C/[C@H](Cc1ccccc1)NC(=O)[C@H](CO)NC(=O)OC(C)(C)C
> 100 µmol | CCOC(=O)/C=C/[C@H](Cc1ccc(O)cc1)NC(=O)[C@H](Cc1ccccc1)NC(=O)OC(C)(C)C

tested on: Bel-7402; test: Antiproliferative activity against human Bel7402 cells at 10 umole; type: functional

Compound | Activity
CCOC(=O)/C=C/[C@H](C[C@@H]1CCNC1=O)NC(=O)[C@H](CC(C)C)NC(=O)[C@H](CO)NC(=O)[C@H](Cc1ccccc1)NC(=O)OC(C)(C)C | -0.39%
CCOC(=O)/C=C/[C@H](C[C@@H]1CCNC1=O)NC(=O)[C@H](CC(C)C)NC(=O)[C@H](CC(C)C)NC(=O)[C@H](CC(C)C)NC(=O)OC(C)(C)C | 12.02%
CCOC(=O)/C=C/[C@H](Cc1ccccc1)NC(=O)[C@@H](NC(=O)[C@@H](NC(=O)OC(C)(C)C)[C@@H](C)CC)[C@@H](C)O | -1.79%
CCOC(=O)/C=C/[C@H](Cc1ccc(O)cc1)NC(=O)[C@@H](NC(=O)OC(C)(C)C)[C@@H](C)CC | 3.32%
CCOC(=O)/C=C/[C@H](Cc1ccccc1)NC(=O)[C@H](CO)NC(=O)[C@H](Cc1ccccc1)NC(=O)OC(C)(C)C | -8.04%
CCOC(=O)/C=C/[C@H](Cc1ccccc1)NC(=O)[C@H](CO)NC(=O)OC(C)(C)C | -3.14%
CCOC(=O)/C=C/[C@H](Cc1ccc(O)cc1)NC(=O)[C@H](Cc1ccccc1)NC(=O)OC(C)(C)C | 12.68%

tested on: not listed separately; test: Inhibition of post acidic-like activity of 20S proteasome

IC50 | Compound
> 100 µmol | CCOC(=O)/C=C/[C@H](C[C@@H]1CCNC1=O)NC(=O)[C@H](CC(C)C)NC(=O)[C@H](CO)NC(=O)[C@H](Cc1ccccc1)NC(=O)OC(C)(C)C
> 100 µmol | CCOC(=O)/C=C/[C@H](C[C@@H]1CCNC1=O)NC(=O)[C@H](CC(C)C)NC(=O)[C@H](CC(C)C)NC(=O)[C@H](CC(C)C)NC(=O)OC(C)(C)C
> 100 µmol | CCOC(=O)/C=C/[C@H](Cc1ccccc1)NC(=O)[C@@H](NC(=O)[C@@H](NC(=O)OC(C)(C)C)[C@@H](C)CC)[C@@H](C)O
> 100 µmol | CCOC(=O)/C=C/[C@H](Cc1ccc(O)cc1)NC(=O)[C@@H](NC(=O)OC(C)(C)C)[C@@H](C)CC
> 100 µmol | CCOC(=O)/C=C/[C@H](Cc1ccccc1)NC(=O)[C@H](CO)NC(=O)[C@H](Cc1ccccc1)NC(=O)OC(C)(C)C
> 100 µmol | CCOC(=O)/C=C/[C@H](Cc1ccccc1)NC(=O)[C@H](CO)NC(=O)OC(C)(C)C
> 100 µmol | CCOC(=O)/C=C/[C@H](Cc1ccc(O)cc1)NC(=O)[C@H](Cc1ccccc1)NC(=O)OC(C)(C)C

tested on: not listed separately; test: Inhibition of trypsin-like activity of 20S proteasome

IC50 | Compound
> 100 µmol | CCOC(=O)/C=C/[C@H](C[C@@H]1CCNC1=O)NC(=O)[C@H](CC(C)C)NC(=O)[C@H](CO)NC(=O)[C@H](Cc1ccccc1)NC(=O)OC(C)(C)C
> 100 µmol | CCOC(=O)/C=C/[C@H](C[C@@H]1CCNC1=O)NC(=O)[C@H](CC(C)C)NC(=O)[C@H](CC(C)C)NC(=O)[C@H](CC(C)C)NC(=O)OC(C)(C)C
> 100 µmol | CCOC(=O)/C=C/[C@H](Cc1ccccc1)NC(=O)[C@@H](NC(=O)[C@@H](NC(=O)OC(C)(C)C)[C@@H](C)CC)[C@@H](C)O
> 100 µmol | CCOC(=O)/C=C/[C@H](Cc1ccc(O)cc1)NC(=O)[C@@H](NC(=O)OC(C)(C)C)[C@@H](C)CC
> 100 µmol | CCOC(=O)/C=C/[C@H](Cc1ccccc1)NC(=O)[C@H](CO)NC(=O)[C@H](Cc1ccccc1)NC(=O)OC(C)(C)C
> 100 µmol | CCOC(=O)/C=C/[C@H](Cc1ccccc1)NC(=O)[C@H](CO)NC(=O)OC(C)(C)C
> 100 µmol | CCOC(=O)/C=C/[C@H](Cc1ccc(O)cc1)NC(=O)[C@H](Cc1ccccc1)NC(=O)OC(C)(C)C

tested on: BGC-823; test: Antiproliferative activity against human BGC823 cells at 10 umole; type: functional

Compound | Activity
CCOC(=O)/C=C/[C@H](C[C@@H]1CCNC1=O)NC(=O)[C@H](CC(C)C)NC(=O)[C@H](CO)NC(=O)[C@H](Cc1ccccc1)NC(=O)OC(C)(C)C | 14.25%
CCOC(=O)/C=C/[C@H](C[C@@H]1CCNC1=O)NC(=O)[C@H](CC(C)C)NC(=O)[C@H](CC(C)C)NC(=O)[C@H](CC(C)C)NC(=O)OC(C)(C)C | 16.14%
CCOC(=O)/C=C/[C@H](Cc1ccccc1)NC(=O)[C@@H](NC(=O)[C@@H](NC(=O)OC(C)(C)C)[C@@H](C)CC)[C@@H](C)O | 13.62%
CCOC(=O)/C=C/[C@H](Cc1ccc(O)cc1)NC(=O)[C@@H](NC(=O)OC(C)(C)C)[C@@H](C)CC | 23.06%
CCOC(=O)/C=C/[C@H](Cc1ccccc1)NC(=O)[C@H](CO)NC(=O)[C@H](Cc1ccccc1)NC(=O)OC(C)(C)C | 8.28%
CCOC(=O)/C=C/[C@H](Cc1ccccc1)NC(=O)[C@H](CO)NC(=O)OC(C)(C)C | 19.11%
CCOC(=O)/C=C/[C@H](Cc1ccc(O)cc1)NC(=O)[C@H](Cc1ccccc1)NC(=O)OC(C)(C)C | 33.88%

tested on: HL-60; test: Antiproliferative activity against human HL60 cells at 10 umole; type: functional

Compound | Activity
CCOC(=O)/C=C/[C@H](C[C@@H]1CCNC1=O)NC(=O)[C@H](CC(C)C)NC(=O)[C@H](CO)NC(=O)[C@H](Cc1ccccc1)NC(=O)OC(C)(C)C | 4.94%
CCOC(=O)/C=C/[C@H](C[C@@H]1CCNC1=O)NC(=O)[C@H](CC(C)C)NC(=O)[C@H](CC(C)C)NC(=O)[C@H](CC(C)C)NC(=O)OC(C)(C)C | 17.17%
CCOC(=O)/C=C/[C@H](Cc1ccccc1)NC(=O)[C@@H](NC(=O)[C@@H](NC(=O)OC(C)(C)C)[C@@H](C)CC)[C@@H](C)O | 8.17%
CCOC(=O)/C=C/[C@H](Cc1ccc(O)cc1)NC(=O)[C@@H](NC(=O)OC(C)(C)C)[C@@H](C)CC | 21.66%
CCOC(=O)/C=C/[C@H](Cc1ccccc1)NC(=O)[C@H](CO)NC(=O)[C@H](Cc1ccccc1)NC(=O)OC(C)(C)C | 21.08%
CCOC(=O)/C=C/[C@H](Cc1ccccc1)NC(=O)[C@H](CO)NC(=O)OC(C)(C)C | 19.98%
CCOC(=O)/C=C/[C@H](Cc1ccc(O)cc1)NC(=O)[C@H](Cc1ccccc1)NC(=O)OC(C)(C)C | 23.66%
